Measurements taken from patent US4032625A, “Bone-seeking technetium-99m complex” (priority 1975, dated 1977).
Read-outs that look alike come from different tables or passages of the source.

Conditions: 2 Hrs

[85Sr] [^85 Sr]
% Dose in Whole Organ: Blood (0.01 mg/kg AEDP): 2.99 % Dose | % Dose in Whole Organ: Kidneys (0.01 mg/kg AEDP): 0.329 % Dose | % Dose in Whole Organ: Liver (0.01 mg/kg AEDP): 0.568 % Dose | % Dose in Whole Organ: Marrow (0.01 mg/kg AEDP): 0.465 % Dose | % Dose in Whole Organ: Muscle (0.01 mg/kg AEDP): 4.98 % Dose | % Dose in Whole Organ: W. Femur (0.01 mg/kg AEDP): 3.22 % Dose | % Dose in Whole Organ: W. Tibia (0.01 mg/kg AEDP): 2.71 % Dose | % Dose/1% Body weight: Blood (0.01 mg/kg AEDP): 0.427 % Dose/1% Body weight | % Dose/1% Body weight: Bone Ave (0.01 mg/kg AEDP): 10.33 % Dose/1% Body weight | % Dose/1% Body weight: Femur (0.01 mg/kg AEDP): 10.38 % Dose/1% Body weight | % Dose/1% Body weight: Kidneys (0.01 mg/kg AEDP): 0.567 % Dose/1% Body weight | % Dose/1% Body weight: Liver (0.01 mg/kg AEDP): 0.177 % Dose/1% Body weight | % Dose/1% Body weight: Marrow (0.01 mg/kg AEDP): 0.211 % Dose/1% Body weight | % Dose/1% Body weight: Muscle (0.01 mg/kg AEDP): 0.116 % Dose/1% Body weight | % Dose/1% Body weight: Pelvis (0.01 mg/kg AEDP): 10.66 % Dose/1% Body weight | % Dose/1% Body weight: Spine (0.01 mg/kg AEDP): 8.98 % Dose/1% Body weight | % Dose/1% Body weight: Tibia (0.01 mg/kg AEDP): 11.28 % Dose/1% Body weight | % Dose: Urine (0.01 mg/kg AEDP): 20.97 % Dose | % Dose in Whole Organ: Blood (0.01 mg/kg EHDP): 3.19 % Dose | % Dose in Whole Organ: Kidneys (0.01 mg/kg EHDP): 0.43 % Dose | % Dose in Whole Organ: Liver (0.01 mg/kg EHDP): 0.74 % Dose | % Dose in Whole Organ: Marrow (0.01 mg/kg EHDP): 0.42 % Dose | % Dose in Whole Organ: One Femur (0.01 mg/kg EHDP): 2.83 % Dose | % Dose/1%-body weight: Blood (0.01 mg/kg EHDP): 0.456 % Dose/1%-body weight | % Dose/1%-body weight: Femur (0.01 mg/kg EHDP): 9.70 % Dose/1%-body weight | % Dose/1%-body weight: Kidney (0.01 mg/kg EHDP): 0.655 % Dose/1%-body weight | % Dose/1%-body weight: Liver (0.01 mg/kg EHDP): 0.206 % Dose/1%-body weight | % Dose/1%-body weight: Marrow (0.01 mg/kg EHDP): 0.192 % Dose/1%-body weight | % Dose: Urine (0.01 mg/kg EHDP): 23.66 % Dose | % Dose in Whole Organ: Blood (0.01 mg/kg MDP): 3.27 % Dose | % Dose in Whole Organ: Kidneys (0.01 mg/kg MDP): 0.34 % Dose | % Dose in Whole Organ: Liver (0.01 mg/kg MDP): 0.65 % Dose | % Dose in Whole Organ: Marrow (0.01 mg/kg MDP): 0.53 % Dose | % Dose in Whole Organ: Muscle (0.01 mg/kg MDP): 5.69 % Dose | % Dose in Whole Organ: One Femur (0.01 mg/kg MDP): 3.46 % Dose | % Dose/1% Body weight: Blood (0.01 mg/kg MDP): 0.47 % Dose/1% body weight | % Dose/1% Body weight: Femur (0.01 mg/kg MDP): 13.93 % Dose/1% body weight | % Dose/1% Body weight: Kidneys (0.01 mg/kg MDP): 0.54 % Dose/1% body weight | % Dose/1% Body weight: Liver (0.01 mg/kg MDP): 0.16 % Dose/1% body weight | % Dose/1% Body weight: Marrow (0.01 mg/kg MDP): 0.24 % Dose/1% body weight | % Dose/1% Body weight: Muscle (0.01 mg/kg MDP): 0.13 % Dose/1% body weight | % Dose/1% Body weight: Pelvis (0.01 mg/kg MDP): 13.55 % Dose/1% body weight | % Dose/1% Body weight: Spine (0.01 mg/kg MDP): 12.78 % Dose/1% body weight | % Dose/1% Body weight: Tibia (0.01 mg/kg MDP): 7.14 % Dose/1% body weight | % Dose/1% body weight: Ave Bone (0.01 mg/kg MDP): 11.85 % Dose/1% body weight | % Dose: Urine (0.01 mg/kg MDP): 10.3 % Dose | % Dose in Whole Organ: Blood (0.05 mg/kg AEDP): 2.50 % Dose | % Dose in Whole Organ: Kidneys (0.05 mg/kg AEDP): 0.353 % Dose | % Dose in Whole Organ: Liver (0.05 mg/kg AEDP): 0.613 % Dose | % Dose in Whole Organ: Marrow (0.05 mg/kg AEDP): 0.486 % Dose | % Dose in Whole Organ: Muscle (0.05 mg/kg AEDP): 5.09 % Dose | % Dose in Whole Organ: W. Femur (0.05 mg/kg AEDP): 3.51 % Dose | % Dose in Whole Organ: W. Tibia (0.05 mg/kg AEDP): 3.15 % Dose | % Dose/1% Body weight: Blood (0.05 mg/kg AEDP): 0.357 % Dose/1% Body weight | % Dose/1% Body weight: Bone Ave (0.05 mg/kg AEDP): 12.34 % Dose/1% Body weight | % Dose/1% Body weight: Femur (0.05 mg/kg AEDP): 12.62 % Dose/1% Body weight | % Dose/1% Body weight: Kidneys (0.05 mg/kg AEDP): 0.551 % Dose/1% Body weight | % Dose/1% Body weight: Liver (0.05 mg/kg AEDP): 0.134 % Dose/1% Body weight | % Dose/1% Body weight: Marrow (0.05 mg/kg AEDP): 0.221 % Dose/1% Body weight | % Dose/1% Body weight: Muscle (0.05 mg/kg AEDP): 0.118 % Dose/1% Body weight | % Dose/1% Body weight: Pelvis (0.05 mg/kg AEDP): 11.44 % Dose/1% Body weight | % Dose/1% Body weight: Spine (0.05 mg/kg AEDP): 11.60 % Dose/1% Body weight | % Dose/1% Body weight: Tibia (0.05 mg/kg AEDP): 13.69 % Dose/1% Body weight | % Dose: Urine (0.05 mg/kg AEDP): 11.95 % Dose | % Dose in Whole Organ: Blood (0.05 mg/kg EHDP): 3.39 % Dose | % Dose in Whole Organ: Kidneys (0.05 mg/kg EHDP): 0.46 % Dose | % Dose in Whole Organ: Liver (0.05 mg/kg EHDP): 0.77 % Dose | % Dose in Whole Organ: Marrow (0.05 mg/kg EHDP): 0.61 % Dose | % Dose in Whole Organ: One Femur (0.05 mg/kg EHDP): 3.33 % Dose | % Dose/1%-body weight: Blood (0.05 mg/kg EHDP): 0.485 % Dose/1%-body weight | % Dose/1%-body weight: Femur (0.05 mg/kg EHDP): 11.51 % Dose/1%-body weight | % Dose/1%-body weight: Kidney (0.05 mg/kg EHDP): 0.616 % Dose/1%-body weight | % Dose/1%-body weight: Liver (0.05 mg/kg EHDP): 0.210 % Dose/1%-body weight | % Dose/1%-body weight: Marrow (0.05 mg/kg EHDP): 0.291 % Dose/1%-body weight | % Dose: Urine (0.05 mg/kg EHDP): 13.4 % Dose | % Dose in Whole Organ: Blood (0.05 mg/kg MDP): 3.66 % Dose | % Dose in Whole Organ: Kidneys (0.05 mg/kg MDP): 0.46 % Dose | % Dose in Whole Organ: Liver (0.05 mg/kg MDP): 0.71 % Dose | % Dose in Whole Organ: Marrow (0.05 mg/kg MDP): 0.53 % Dose | % Dose in Whole Organ: Muscle (0.05 mg/kg MDP): 5.89 % Dose | % Dose in Whole Organ: One Femur (0.05 mg/kg MDP): 2.53 % Dose | % Dose/1% Body weight: Blood (0.05 mg/kg MDP): 0.52 % Dose/1% body weight | % Dose/1% Body weight: Femur (0.05 mg/kg MDP): 9.10 % Dose/1% body weight | % Dose/1% Body weight: Kidneys (0.05 mg/kg MDP): 0.9 % Dose/1% body weight | % Dose/1% Body weight: Liver (0.05 mg/kg MDP): 0.22 % Dose/1% body weight | % Dose/1% Body weight: Marrow (0.05 mg/kg MDP): 0.24 % Dose/1% body weight | % Dose/1% Body weight: Muscle (0.05 mg/kg MDP): 0.14 % Dose/1% body weight | % Dose/1% Body weight: Pelvis (0.05 mg/kg MDP): 8.33 % Dose/1% body weight | % Dose/1% Body weight: Spine (0.05 mg/kg MDP): 6.75 % Dose/1% body weight | % Dose/1% Body weight: Tibia (0.05 mg/kg MDP): 4.94 % Dose/1% body weight | % Dose/1% body weight: Ave Bone (0.05 mg/kg MDP): 7.29 % Dose/1% body weight | % Dose: Urine (0.05 mg/kg MDP): 23.16 % Dose
